Assays:
[1] = system: spontaneously hypertensive rats; assay: Urinary microalbumin (bromophenol blue absorbance) in spontaneously hypertensive rats; format: in vivo, rat; settings: SHR, high sugar and high fat diets, intragastric once every day, twelve-hour overnight urine; time point not given in table
Method: Model control group: intragastric administration of same volume of physiological saline; […] L group: 5 mg/(kg·d) of losartan; R group: 1 mg/(kg·d) of rosuvastatin group; L+R group: 5 mg/(kg·d) of losartan+1 mg/(kg·d) of rosuvastatin calcium; P+R group: 1.5 mg/(kg·d) of pioglitazone+1 mg/(kg·d) of rosuvastatin calcium; L+P group: 5 mg/(kg·d) of losartan+1.5 mg/(kg·d) of pioglitazone; […] Each group was given intragastric administration once every day and fed with high sugar and high fat diets for six months. During the experiment, the diet, survival status and behaviors of the animals were recorded, and the animals were weighed once every day and the doses of administration were adjusted according to the body weights. 1. 10% (v/v) glacial acetic acid solution (pH 2.8). 2. 0.303 mol/L glycine-glacial acetic acid buffer solution (pH 3.0): 22.72 g of glycine was weighed and diluted with 10% glacial acetic acid solution to 1000 ml, to which 100 mg of NaN3 was added. The buffer solution can be kept for one year at room temperature after sealed. 3. Bromophenol blue (1.924 mmol/L) stock solution: 257.36 mg of BPB was precisely weighed and dissolved to 200 ml with absolute ethanol. The stock solution can be kept for one year in a refrigerator at 4° C. 4. Bromophenol blue (0.231 mmol/L) developing agent: to 60 ml of BPB stock solution, 2.5 ml Triton X-100 was added, and then diluted to 500 ml with glycine-glacial acetic acid buffer solution. The developing agent can be kept for one year at room temperature after sealed. Collection and detection of samples: rats were taken out and fed in a metabolic cage at the fourth week, the eighth week, the twelfth week and the sixteenth week, respectively, and twelve-hour overnight urinary collection was performed. Urinary amounts were precisely recorded. 4 ml of urine was sampled, treated with sodium azide, and centrifuged at 2000 r/min for 10 min.

[2] = system: spontaneously hypertensive rats; assay: Cardiac hypertrophy (left ventricular weight/body weight) in spontaneously hypertensive rats; format: in vivo, rat; settings: SHR, after ten weeks of intragastric administration once every day
Method: Each group was given intragastric administration once every day for ten weeks. During the experiment, the diet, survival status and behaviors of the animals were recorded, and the animals were weighed once every day and the doses of administration were adjusted according to the body weights. Animals were sacrificed after ten weeks, and their hearts were taken out to determine the weights of left ventricles and calculate left ventricular indexes. After being sacrificed with 10% potassium chloride (2 mmol/L, 1 ml/rat), the rats were weighed. Heart was taken out and aortas and connective tissues outside of the heart were removed. The heart was cleaned by washing, dried with a filter paper, and weighed. The left ventricular was weighed after the atria were removed, and a ratio of left ventricular weight to body weight was calculated.

[3] = system: spontaneously hypertensive rats; assay: Carotid intima-media thickness in spontaneously hypertensive rats; format: in vivo, rat; settings: SHR carotid artery, high sugar and high fat diets, intragastric once every day for six months
Method: Each group was given intragastric administration once every day and fed with high sugar and high fat diets for six months. During the experiment, the diet, survival status and behaviors of the animals were recorded, and the animals were weighed once every day and the doses of administration were adjusted according to the body weights. After the animal was anesthetized and fixed, Even's blue (60 mg/kg) dye was injected via a femoral artery. After 30 minutes, myocardial perfusion was performed with 0.9% physiological saline as a perfusate at a perfusion pressure of 13.3 kPa until the effluent became clear. Then, 4% paraformaldehyde in physiological saline was perfused for 10 minutes for in situ fixation (the perfusion pressure was the same as above). The section of Even's blue-stained carotid artery was taken and further fixed with formalin solution, and three parts, i.e. the front, the middle and the rear parts, respectively, were sampled and embedded in paraffin, and then sliced discontinuously to obtain 8 to 10 layers, which were stained with HE. Three vascular sections were randomly selected and input into a computer image processing system so as to perform a computerized image measurement, thereby calculating the intima-media thickness.

[4] = system: spontaneously hypertensive rats; assay: Tail arterial blood pressure of conscious spontaneously hypertensive rats; format: in vivo, rat; settings: for blood pressure, after treatment, eighth week / blood pressure, after treatment, fifth week / blood pressure, after treatment, first week / blood pressure, after treatment, third week: SHR, intragastric once every day, 2-5 h after administration; for blood pressure, before treatment: spontaneously hypertensive rats, baseline before treatment, n = 11
Method: Model control group: intragastric administration of same volume of physiological saline; P group: 0.5 mg/(kg·d) of pioglitazone; L group: 5 mg/(kg·d) of losartan; R group: 0.5 mg/(kg·d) of rosuvastatin calcium; L+R group: 5 mg/(kg·d) of losartan+0.5 mg/(kg·d) of rosuvastatin calcium; P+R group: 0.5 mg/(kg·d) of pioglitazone+0.5 mg/(kg·d) of rosuvastatin calcium; L+P group: 5 mg/(kg·d) of losartan+0.5 mg/(kg·d) of pioglitazone; […] Each group was given intragastric administration once every day for ten weeks. During the experiment, the diet, survival status and behaviors of the animals were recorded, and the animals were weighed once every day and the doses of administration were adjusted according to the body weights. Animals were sacrificed after ten weeks, and their hearts were taken out to determine the weights of left ventricles and calculate left ventricular indexes. Temperature was controlled between 18° C. and 22° C., humidity was controlled between 45% and 65%, and indoor natural light was used. Tail arterial blood pressure of a conscious rat was measured with Intelligent Non-invasive Blood Pressure Monitor BP-2006A (provided by Beijing Softron Co., Ltd.). Blood pressures were measured five times between two and five hours after intragastric administration in the first week, the third week, the fifth week and the eighth week, respectively. The average value of the blood pressures was used as the blood pressure of the sample.

[5] = system: metabolic syndrome patients; assay: Treatment of patients suffered from metabolic syndrome (FBG, FINS, HbAlC, TC/HDLC, Fg); format: in vivo, human
Excerpt: Sixth-four metabolic syndrome patients were selected from those received treatment in Linyi People's Hospital from March 2007 to June 2008, and randomly divided into a control group and an experimental group. Control group: twenty-one males and eleven females, whose ages were between 61 and 72 and whose body mass indexes (BMI) were between 26 and 30; Experimental group: nineteen males and thirteen females, whose ages were between 62 and 70 and whose body mass indexes (BMI) were between 25.5 and 31; Before the treatment, all patients were subjected to blood lipids (including total cholesterol (TC), high-density lipid cholesterol (HDLC)) analysis, and detection of glycated hemoglobin (HbAlC), fasting blood glucose (FBG), fasting insulin (FINS) and fibrinogen (Fg). […] After eight weeks of continuous treatment, all of the above parameters were re-determined, in which blood glucose was determined with hexokinase method, blood lipid was determined with esterase method, fibrinogen was determined with coagulation method and chromogenic substrate assay, HbAlC was determined with chromatography, and fasting insulin was determined with chemiluminescence immunoassay. Statistical analysis: SPSS software was employed, and test of significance was performed by using a paired sample t test.

[6] = once every day, after eight weeks

Row | SMILES | urinary microalbumin, Absorbance A (600 nm) [1] | Left ventricular weight [2] [g] | Left ventricular weight/body weight (×10^-3) [2] | Maximum intima thickness [3] [mm] | Ratio of intima to media thickness [3] | blood pressure, after treatment, eighth week [4] [mmHg] | blood pressure, after treatment, fifth week [4] [mmHg] | blood pressure, after treatment, first week [4] [mmHg] | blood pressure, after treatment, third week [4] [mmHg] | blood pressure, before treatment [4] [mmHg] | FBG, before treatment ([5]; before treatment) [mmol/L] | FINS, before treatment ([5]; before treatment) [mlU/L] | Fg, before treatment ([5]; before treatment) [mg/dL] | HbAlC, before treatment ([5]; before treatment) [%] | TC/HDLC, before treatment ([5]; before treatment) | FBG, after treatment [5, 6] [mmol/L] | FINS, after treatment [5, 6] [mlU/L] | Fg, after treatment [5, 6] [mg/dL] | HbAlC, after treatment [5, 6] [%] | TC/HDLC, after treatment [5, 6]
1 | CCCCc1nc(Cl)c(CO)n1Cc1ccc(-c2ccccc2-c2nn[nH]n2)cc1 [L group, losartan] | 0.6132 | 0.873 | 2.90 ×10^-3 | 0.0926 | 1.8055 | 156 | 155 | 168 | 162 | 171 |  |  |  |  |  |  |  |  |  | 
2 | CCc1ccc(CCOc2ccc(CC3SC(=O)NC3=O)cc2)nc1 (stereo not shown) [P group, pioglitazone] | 0.5714 | 0.986 | 3.30 ×10^-3 | 0.0958 | 1.8325 | 172 | 171 | 172 | 168 | 172 | 7.11 | 31.5 | 426.3 | 6.92 | 4.25 | 6.69 | 24.36 | 390.8 | 6.33 | 3.84
3 | CC(C)c1nc(N(C)S(C)(=O)=O)nc(-c2ccc(F)cc2)c1/C=C/[C@@H](O)C[C@@H](O)CC(=O)O [R group, rosuvastatin calcium] | 0.5672 | 0.960 | 3.16 ×10^-3 | 0.1153 | 2.0754 | 169 | 170 | 166 | 168 | 168 |  |  |  |  |  |  |  |  |  | 

Source: patent publication US20110118288A1, “PHARMACEUTICAL COMPOSITION FOR TREATING HYPERTENSION AND METABOLIC SYNDROME AND USE THEREOF” (priority 2008, published 2011)
